Data from article PMC12254355 (Nature Communications, 2025).
Ends that are not written are not given here.

How the values were obtained:
[1] = test system: A. baumannii ATCC 19606; settings: ATCC 19606, 24 h
[2] = test system: E. coli ATCC 11775; settings: ATCC 11775, 24 h
[3] = test system: E. coli AIC221; settings: AIC221, 24 h
[4] = test system: P. aeruginosa PAO1; settings: PAO1, 24 h
[5] = test system: P. aeruginosa PA14; settings: PA14, 24 h
[6] = test system: E. faecium ATCC 700221 - VRE; settings: ATCC 700221, 24 h
[7] = test system: HEK293T cells; settings: for CC50 vs HEK293T cells (source data of Figure 4a): 24 h
[8] = test system: human red blood cells; settings: pH 7.4
[9] = test system: K. pneumoniae ATCC 13883; settings: ATCC 13883, 24 h

RFGSFLKKVWKSKLAKKL [UniprotKB-20]
Minimal Inhibitory Concentration, A. baumannii ATCC 19606 (-) [1]: 64 µmol/L | Minimal Inhibitory Concentration, E. coli ATCC 11775 (-) [2]: 32 µmol/L | Minimal Inhibitory Concentration, E. coli AIC221 (-) [3]: 16 µmol/L | Minimal Inhibitory Concentration, P. aeruginosa PAO1 (-) [4]: 8 µmol/L | Minimal Inhibitory Concentration, P. aeruginosa PA14 (-) [5]: 16 µmol/L | Minimal Inhibitory Concentration, E. faecium ATCC 700221 - VRE (+) [6]: 8 µmol/L | SIcytotoxicity [7]: 6.6 | CC50 vs HEK293T cells (source data of Figure 4a) [7]: 52.53 µM | HC50 [8]: 18147.0

KFSVFSKILRSIAKVFKGVGKVRK [Arachnoserver-27]
Minimal Inhibitory Concentration, E. coli ATCC 11775 (-) [2]: 32 µmol/L | Minimal Inhibitory Concentration, E. coli AIC221 (-) [3]: 8 µmol/L | Minimal Inhibitory Concentration, K. pneumoniae ATCC 13883 (-) [9]: 4 µmol/L | Minimal Inhibitory Concentration, E. faecium ATCC 700221 - VRE (+) [6]: 8 µmol/L | SIcytotoxicity [7]: 2.0 | CC50 vs HEK293T cells (source data of Figure 4a) [7]: 7.976 µM | HC50 [8]: 24.2

KNKRFIRNLRSNLYQKIIKSTKSLL [UniprotKB-14]
Minimal Inhibitory Concentration, E. coli ATCC 11775 (-) [2]: 32 µmol/L | Minimal Inhibitory Concentration, E. coli AIC221 (-) [3]: 8 µmol/L | Minimal Inhibitory Concentration, K. pneumoniae ATCC 13883 (-) [9]: 32 µmol/L | Minimal Inhibitory Concentration, P. aeruginosa PAO1 (-) [4]: 32 µmol/L | Minimal Inhibitory Concentration, P. aeruginosa PA14 (-) [5]: 32 µmol/L | Minimal Inhibitory Concentration, E. faecium ATCC 700221 - VRE (+) [6]: 32 µmol/L | SIcytotoxicity [7]: 5.7 | CC50 vs HEK293T cells (source data of Figure 4a) [7]: 45.94 µM | HC50 [8]: 7.733e+045

RRVKRFKKFFMKLKKSVKKRVMKFFK [UniprotKB-5]
Minimal Inhibitory Concentration, A. baumannii ATCC 19606 (-) [1]: 64 µmol/L | Minimal Inhibitory Concentration, E. coli ATCC 11775 (-) [2]: 32 µmol/L | Minimal Inhibitory Concentration, E. coli AIC221 (-) [3]: 32 µmol/L | Minimal Inhibitory Concentration, P. aeruginosa PAO1 (-) [4]: 8 µmol/L | Minimal Inhibitory Concentration, P. aeruginosa PA14 (-) [5]: 8 µmol/L | Minimal Inhibitory Concentration, E. faecium ATCC 700221 - VRE (+) [6]: 8 µmol/L | CC50 vs HEK293T cells [7]: 9 µM | SIcytotoxicity [7]: 1.1 | CC50 vs HEK293T cells (source data of Figure 4a) [7]: 8.885 µM | HC50 [8]: 103.8

RKFKWGSFKKILSAGKKLFKKAKKLSKNKNFKKALK [Arachnoserver-6]
Minimal Inhibitory Concentration, A. baumannii ATCC 19606 (-) [1]: 64 µmol/L | Minimal Inhibitory Concentration, E. coli ATCC 11775 (-) [2]: 32 µmol/L | Minimal Inhibitory Concentration, E. coli AIC221 (-) [3]: 4 µmol/L | Minimal Inhibitory Concentration, P. aeruginosa PAO1 (-) [4]: 4 µmol/L | Minimal Inhibitory Concentration, P. aeruginosa PA14 (-) [5]: 4 µmol/L | Minimal Inhibitory Concentration, E. faecium ATCC 700221 - VRE (+) [6]: 8 µmol/L | CC50 vs HEK293T cells [7]: 5 µM | SIcytotoxicity [7]: 1.3 | CC50 vs HEK293T cells (source data of Figure 4a) [7]: 5.173 µM | HC50 [8]: 12.1

VNSFKIGGFIKKLWRSKLAKKLRAK [UniprotKB-19]
Minimal Inhibitory Concentration, A. baumannii ATCC 19606 (-) [1]: 64 µmol/L | Minimal Inhibitory Concentration, E. coli ATCC 11775 (-) [2]: 64 µmol/L | Minimal Inhibitory Concentration, E. coli AIC221 (-) [3]: 16 µmol/L | Minimal Inhibitory Concentration, P. aeruginosa PAO1 (-) [4]: 8 µmol/L | Minimal Inhibitory Concentration, P. aeruginosa PA14 (-) [5]: 16 µmol/L | Minimal Inhibitory Concentration, E. faecium ATCC 700221 - VRE (+) [6]: 4 µmol/L | SIcytotoxicity [7]: 10.2 | CC50 vs HEK293T cells (source data of Figure 4a) [7]: 40.64 µM | HC50 [8]: 625.9

RKFKWGKLFSTAKKLYKKGKKLSK [UniprotKB-16]
Minimal Inhibitory Concentration, A. baumannii ATCC 19606 (-) [1]: 32 µmol/L | Minimal Inhibitory Concentration, E. coli ATCC 11775 (-) [2]: 8 µmol/L | Minimal Inhibitory Concentration, E. coli AIC221 (-) [3]: 4 µmol/L | Minimal Inhibitory Concentration, P. aeruginosa PAO1 (-) [4]: 4 µmol/L | Minimal Inhibitory Concentration, P. aeruginosa PA14 (-) [5]: 4 µmol/L | Minimal Inhibitory Concentration, E. faecium ATCC 700221 - VRE (+) [6]: 32 µmol/L | SIcytotoxicity [7]: 5.9 | CC50 vs HEK293T cells (source data of Figure 4a) [7]: 23.72 µM | HC50 [8]: 2082.0

KYRRGVSPWLKKELVRLHNNLRSKVAGGK [Arachnoserver-31]
Minimal Inhibitory Concentration, E. coli ATCC 11775 (-) [2]: 8 µmol/L | Minimal Inhibitory Concentration, E. coli AIC221 (-) [3]: 4 µmol/L | Minimal Inhibitory Concentration, K. pneumoniae ATCC 13883 (-) [9]: 4 µmol/L | Minimal Inhibitory Concentration, P. aeruginosa PA14 (-) [5]: 64 µmol/L | Minimal Inhibitory Concentration, E. faecium ATCC 700221 - VRE (+) [6]: 16 µmol/L | CC50 vs HEK293T cells [7]: 13 µM | SIcytotoxicity [7]: 3.2 | CC50 vs HEK293T cells (source data of Figure 4a) [7]: 12.67 µM | HC50 [8]: 1392.0

LKLKSILGKLGVIL [UniprotKB-4]
Minimal Inhibitory Concentration, A. baumannii ATCC 19606 (-) [1]: 64 µmol/L | Minimal Inhibitory Concentration, K. pneumoniae ATCC 13883 (-) [9]: 64 µmol/L | CC50 vs HEK293T cells [7]: 10 µM | SIcytotoxicity [7]: 0.7 | CC50 vs HEK293T cells (source data of Figure 4a) [7]: 10.49 µM | HC50 [8]: 3.938e+054

KRFIRNLRSNLYQKIIKSTKSLLDLREKI [Arachnoserver-17]
Minimal Inhibitory Concentration, E. coli ATCC 11775 (-) [2]: 64 µmol/L | Minimal Inhibitory Concentration, E. coli AIC221 (-) [3]: 8 µmol/L | Minimal Inhibitory Concentration, K. pneumoniae ATCC 13883 (-) [9]: 4 µmol/L | SIcytotoxicity [7]: 4.1 | CC50 vs HEK293T cells (source data of Figure 4a) [7]: 16.47 µM | HC50 [8]: 280.5

RKFKWGSFKKILSAGKKLFKKAKKLSK [Arachnoserver-2]
Minimal Inhibitory Concentration, A. baumannii ATCC 19606 (-) [1]: 32 µmol/L | Minimal Inhibitory Concentration, E. coli ATCC 11775 (-) [2]: 8 µmol/L | Minimal Inhibitory Concentration, E. coli AIC221 (-) [3]: 1 µmol/L | Minimal Inhibitory Concentration, P. aeruginosa PAO1 (-) [4]: 4 µmol/L | Minimal Inhibitory Concentration, P. aeruginosa PA14 (-) [5]: 4 µmol/L | Minimal Inhibitory Concentration, E. faecium ATCC 700221 - VRE (+) [6]: 8 µmol/L | CC50 vs HEK293T cells [7]: 10 µM | SIcytotoxicity [7]: 9.9 | CC50 vs HEK293T cells (source data of Figure 4a) [7]: 9.929 µM | HC50 [8]: 108.1

FIKKLWRSKLAKKLRAKGRELLK [UniprotKB-17]
Minimal Inhibitory Concentration, A. baumannii ATCC 19606 (-) [1]: 32 µmol/L | Minimal Inhibitory Concentration, E. coli ATCC 11775 (-) [2]: 16 µmol/L | Minimal Inhibitory Concentration, E. coli AIC221 (-) [3]: 16 µmol/L | Minimal Inhibitory Concentration, P. aeruginosa PAO1 (-) [4]: 8 µmol/L | Minimal Inhibitory Concentration, P. aeruginosa PA14 (-) [5]: 16 µmol/L | Minimal Inhibitory Concentration, E. faecium ATCC 700221 - VRE (+) [6]: 16 µmol/L | SIcytotoxicity [7]: 3.9 | CC50 vs HEK293T cells (source data of Figure 4a) [7]: 30.97 µM | HC50 [8]: 4.224e+042

KLHGLLTRRSLKNFWKRNLYLR [Conoserver-6]
Minimal Inhibitory Concentration, A. baumannii ATCC 19606 (-) [1]: 32 µmol/L | Minimal Inhibitory Concentration, E. coli ATCC 11775 (-) [2]: 64 µmol/L | Minimal Inhibitory Concentration, E. coli AIC221 (-) [3]: 4 µmol/L | Minimal Inhibitory Concentration, P. aeruginosa PAO1 (-) [4]: 16 µmol/L | Minimal Inhibitory Concentration, P. aeruginosa PA14 (-) [5]: 32 µmol/L | Minimal Inhibitory Concentration, E. faecium ATCC 700221 - VRE (+) [6]: 32 µmol/L | SIcytotoxicity [7]: 7.9 | CC50 vs HEK293T cells (source data of Figure 4a) [7]: 31.74 µM | HC50 [8]: 66.3

ARKFKWGKLFSAGKKLLKKAKKLSKNK [Arachnoserver-11]
Minimal Inhibitory Concentration, A. baumannii ATCC 19606 (-) [1]: 64 µmol/L | Minimal Inhibitory Concentration, E. coli ATCC 11775 (-) [2]: 32 µmol/L | Minimal Inhibitory Concentration, E. coli AIC221 (-) [3]: 4 µmol/L | Minimal Inhibitory Concentration, P. aeruginosa PAO1 (-) [4]: 8 µmol/L | Minimal Inhibitory Concentration, P. aeruginosa PA14 (-) [5]: 8 µmol/L | Minimal Inhibitory Concentration, E. faecium ATCC 700221 - VRE (+) [6]: 8 µmol/L | CC50 vs HEK293T cells [7]: 9 µM | SIcytotoxicity [7]: 2.2 | CC50 vs HEK293T cells (source data of Figure 4a) [7]: 8.722 µM | HC50 [8]: 1118.0

KWLKAMKSIAKFIAKKQMKKHL [Arachnoserver-32]
Minimal Inhibitory Concentration, E. coli AIC221 (-) [3]: 64 µmol/L | Minimal Inhibitory Concentration, K. pneumoniae ATCC 13883 (-) [9]: 16 µmol/L | Minimal Inhibitory Concentration, P. aeruginosa PAO1 (-) [4]: 8 µmol/L | Minimal Inhibitory Concentration, P. aeruginosa PA14 (-) [5]: 16 µmol/L | Minimal Inhibitory Concentration, E. faecium ATCC 700221 - VRE (+) [6]: 4 µmol/L | CC50 vs HEK293T cells [7]: 8 µM | SIcytotoxicity [7]: 1.9 | CC50 vs HEK293T cells (source data of Figure 4a) [7]: 7.568 µM | HC50 [8]: 19.2
